{"source": "patent US20240116863A1", "about": "“DIPHENYL THIOUREA AND DIPHENYL UREA DERIVATIVES AS INHIBITORS OF ENDOCYTOSIS” (priority 2022, published 2024)", "key": {"[1]": {"system": "SARS-CoV-2 Delta (B.1.617.2) and Omicron (B.1.1.529) strains", "test": "Infection of Vero-E6 cells with additional SARS-CoV-2 strains", "type": "cell-based"}, "cellular endocytosis": {"system": "cellular endocytosis", "conditions": "cited from earlier work"}, "A549 cells": {"system": "A549 cells", "type": "cell-based, Human", "method": "Human lung epithelial cells (A549) were seeded in a 96-well optical-bottom plate. When the cells reached 70-80% confluency, the cells were treated with the compounds (DPUDs and DPTUD) dissolved in DMSO) (50 ∥M) for 12 h at 37° C. Following treatment, the cells were washed with PBS and fixed with 4% formaldehyde for 20 min at room temperature. Nucleus was stained with Hoechst diluted in PBS (1:10000). High-content microscopy and image analysis were performed to quantitate cell number (FIG. 3). All data are represented as mean±SD. The P-value was determined using one-way ANOVA with multiple comparisons w.r.t. DMSO. ns: P>0.05, *P<0.05, **P<0.01, ***P<0.001, ****P<0.0001."}, "[2]": {"system": "EGF endocytosis in A549 cells", "type": "cell-based", "conditions": "10 μM"}, "[3]": {"system": "organelle acidification in A549 cells", "type": "cell-based", "conditions": "10 μM, 1 h"}, "[4]": {"system": "transferrin endocytosis in A549 cells", "type": "cell-based", "conditions": "10 μM"}, "[5]": {"system": "cholera toxin B (CTXB) endocytosis in A549 cells", "type": "cell-based", "conditions": "10 μM"}, "IAV (X-31)": {"system": "IAV (X-31)", "type": "cell-based, influenza A virus", "conditions": "10 μM, A549 cells"}, "IAV (WSN) [6]": {"system": "IAV (WSN)", "type": "cell-based, influenza A virus"}, "IAV (WSN) [7]": {"system": "IAV (WSN)", "type": "in vivo, C57BL/6 mice"}}, "note": "“Also recorded” adds a separate entry of the source. Like-named read-outs stand apart in the source and are kept apart here."}
{"compound": "O=C(Nc1cc(F)cc(F)c1)Nc1cc(F)cc(F)c1", "note": "[DPUD-16, 1,3-bis(3,5-difluorophenyl)urea]", "values": [{"measurement": "effect on infection with SARS-CoV-2 Delta and Omicron", "setting": "[1]", "value": "Reduced infection"}]}
{"compound": "methyl-β-cyclodextrin", "values": [{"measurement": "inhibitory concentration of known endocytosis inhibitor", "setting": "cellular endocytosis; 100× higher than the derivatives", "value": 1, "unit": "mM"}]}
{"compound": "O=C(Nc1ccc(C(F)(F)F)cc1)Nc1ccc(C(F)(F)F)cc1", "note": "[DPUD-2, 1,3-bis(4-(trifluoromethyl)phenyl)urea]", "values": [{"measurement": "effect on infection with SARS-CoV-2 Delta and Omicron", "setting": "[1]", "value": "highly effective; also recorded: Reduced infection"}]}
{"compound": "CN(C)CCCN1c2ccccc2Sc2ccc(Cl)cc21", "note": "[chlorpromazine, reference compound]", "values": [{"measurement": "inhibitory concentration of known endocytosis inhibitor", "setting": "cellular endocytosis; 7× higher than the derivatives", "value": 0.07, "unit": "mM"}, {"measurement": "cytotoxicity", "setting": "A549 cells; human", "value": "> 75", "unit": "%"}]}
{"compound": "O=C(Nc1ccc(OC(F)(F)F)cc1)Nc1ccc(OC(F)(F)F)cc1", "note": "[DPUD-20, 1,3-bis(4-(trifluoromethoxy)phenyl)urea]", "values": [{"measurement": "effect on infection with SARS-CoV-2 Delta and Omicron", "setting": "[1]", "value": "Reduced infection"}]}
{"compound": "FC(F)(F)c1cc(NC(=S)Nc2cc(C(F)(F)F)cc(C(F)(F)F)c2)cc(C(F)(F)F)c1", "note": "[DPTUD, 1,3-bis(3,5-bis(trifluoromethyl)phenyl)thiourea]", "values": [{"measurement": "EGF uptake", "setting": "[2]", "value": "significantly blocked"}, {"measurement": "organelle acidification (LysoTracker-positive signal)", "setting": "[3]", "value": "robustly inhibited"}, {"measurement": "cytotoxicity", "setting": "A549 cells; 50 μM, 12 h, A549 cells", "value": "did not show cytotoxicity"}, {"measurement": "transferrin uptake", "setting": "[4]", "value": "significantly blocked"}, {"measurement": "cholera toxin B (CTXB) uptake", "setting": "[5]", "value": "significantly blocked"}]}
{"compound": "O=C(Nc1cc(Br)cc(Br)c1)Nc1cc(Br)cc(Br)c1", "note": "[DPUD-23, 1,3-bis(3,5-dibromophenyl)urea]", "values": [{"measurement": "effect on infection with SARS-CoV-2 Delta and Omicron", "setting": "[1]", "value": "highly effective; also recorded: Reduced infection"}]}
{"compound": "O=C(Nc1cc(C(F)(F)F)cc(C(F)(F)F)c1)Nc1cc(C(F)(F)F)cc(C(F)(F)F)c1", "note": "[DPUD-1, 1,3-bis(3,5-bis(trifluoromethyl)phenyl)urea]", "values": [{"measurement": "effect on infection with SARS-CoV-2 Delta and Omicron", "setting": "[1]", "value": "highly effective; also recorded: Reduced infection"}, {"measurement": "virus particle internalization in live cells", "setting": "IAV (X-31)", "value": "majority of the virus particles failed to enter the cells"}, {"measurement": "IAV (WSN) titre in virus plaque assay", "setting": "IAV (WSN) [6]", "value": "significant reduction"}, {"measurement": "body weight recovery of the infected mice", "setting": "IAV (WSN) [7]; […], 1 mg/kg i.p. twice daily 5 days", "value": "most effective"}, {"measurement": "lung viral titres (RT-PCR of NP gene and plaque assay)", "setting": "IAV (WSN) [7]; mouse, in vivo", "value": "significant reduction"}, {"measurement": "survival of infected mice", "setting": "IAV (WSN) [7]; mouse, in vivo", "value": "Better survival"}]}
